Results as given in patent US20170247366A1, “SUBSTITUTED 4-ALKOXYPICOLINAMIDE ANALOGS AS MGLUR5 NEGATIVE ALLOSTERIC MODULATORS AND METHODS OF MAKING AND USING THE SAME” (VANDERBILT UNIVERSITY, priority 2014, published 2017).

Target: T1, cytochrome P450 1A2 (Homo sapiens, UniProt P05177)
T1 sequence (P05177 1-516): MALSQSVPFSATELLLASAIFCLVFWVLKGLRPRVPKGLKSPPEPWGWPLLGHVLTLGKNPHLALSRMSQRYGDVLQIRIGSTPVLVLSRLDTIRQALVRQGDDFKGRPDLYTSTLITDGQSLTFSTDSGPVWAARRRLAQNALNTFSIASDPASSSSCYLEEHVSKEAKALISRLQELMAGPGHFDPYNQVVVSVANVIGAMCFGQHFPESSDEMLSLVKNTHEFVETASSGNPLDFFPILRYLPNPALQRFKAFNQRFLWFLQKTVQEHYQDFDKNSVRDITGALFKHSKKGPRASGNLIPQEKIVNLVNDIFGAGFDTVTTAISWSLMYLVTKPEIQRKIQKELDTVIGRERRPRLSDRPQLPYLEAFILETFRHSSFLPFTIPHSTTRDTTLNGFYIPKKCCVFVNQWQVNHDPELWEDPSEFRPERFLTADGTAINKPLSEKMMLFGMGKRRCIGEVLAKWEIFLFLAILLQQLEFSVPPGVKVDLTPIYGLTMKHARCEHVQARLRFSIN
Experiment: not given
Details: cited from earlier work
In the case of `Cc1nc(C#Cc2cccnc2)cs1` [MTEP, 3-[(2-methyl-1,3-thiazol-4-yl)ethynyl]pyridine], the “Inhibition of cytochrome P450 1A2” value is given as “potent inhibitor”.

System: not given
Experiment: not given
Details: intravenous administration to rhesus monkeys; cited from earlier work
In the case of `Cc1nc(C#Cc2cccnc2)cs1` [MTEP, 3-[(2-methyl-1,3-thiazol-4-yl)ethynyl]pyridine], the Clearance is given as “efficiently cleared”.

Target: T2, rat mGluR5 (Rattus norvegicus, UniProt P31424)
T2 construct: expressed in transfected cells
T2 sequence (P31424 21-1203): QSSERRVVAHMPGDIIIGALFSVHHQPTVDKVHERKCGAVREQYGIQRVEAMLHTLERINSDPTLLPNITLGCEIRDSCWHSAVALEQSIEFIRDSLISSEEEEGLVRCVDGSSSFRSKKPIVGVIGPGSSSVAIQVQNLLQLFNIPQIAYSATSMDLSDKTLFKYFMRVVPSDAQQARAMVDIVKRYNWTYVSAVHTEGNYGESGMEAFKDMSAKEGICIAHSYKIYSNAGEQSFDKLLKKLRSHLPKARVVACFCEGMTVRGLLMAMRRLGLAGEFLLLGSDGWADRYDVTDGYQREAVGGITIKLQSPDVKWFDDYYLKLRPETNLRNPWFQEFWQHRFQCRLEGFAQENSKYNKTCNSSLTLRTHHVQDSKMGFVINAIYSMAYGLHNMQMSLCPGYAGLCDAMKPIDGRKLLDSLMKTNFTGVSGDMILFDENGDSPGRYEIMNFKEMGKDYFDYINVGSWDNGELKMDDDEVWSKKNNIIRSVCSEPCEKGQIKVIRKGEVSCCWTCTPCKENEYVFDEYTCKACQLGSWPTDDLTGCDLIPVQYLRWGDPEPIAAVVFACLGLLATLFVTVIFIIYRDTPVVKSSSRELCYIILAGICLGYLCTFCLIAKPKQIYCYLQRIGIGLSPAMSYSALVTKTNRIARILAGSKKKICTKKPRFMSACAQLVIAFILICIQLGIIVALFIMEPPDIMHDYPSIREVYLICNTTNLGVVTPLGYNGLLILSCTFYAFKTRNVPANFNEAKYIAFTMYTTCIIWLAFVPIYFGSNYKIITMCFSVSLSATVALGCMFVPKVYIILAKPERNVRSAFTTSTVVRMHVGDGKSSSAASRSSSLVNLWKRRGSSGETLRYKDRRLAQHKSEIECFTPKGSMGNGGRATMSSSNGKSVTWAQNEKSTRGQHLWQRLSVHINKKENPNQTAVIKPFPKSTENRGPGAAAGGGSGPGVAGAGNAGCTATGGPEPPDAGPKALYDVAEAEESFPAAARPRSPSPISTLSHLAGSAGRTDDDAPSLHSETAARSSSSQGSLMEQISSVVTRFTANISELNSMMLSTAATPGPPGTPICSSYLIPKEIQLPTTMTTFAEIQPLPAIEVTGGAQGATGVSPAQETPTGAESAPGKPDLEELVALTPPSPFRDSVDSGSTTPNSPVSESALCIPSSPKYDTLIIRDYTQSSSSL
Experiment: mGluR5 calcium flux assay in HEK 293A cells, negative allosteric modulation of glutamate EC80 response
Format: cell-based
Details: HEK cells transfected with rat mGluR5; glutamate EC80; ± is standard error of at least three experiments
Procedure: HEK 293A cells stably expressing either rat or human mGluR5 were plated in black-walled, clear-bottomed, poly-D-lysine coated 384-well plates in 20 μL of assay medium (DMEM containing 10% dialyzed FBS, 20 mM HEPES, 100 units/mL penicillin/streptomycin plus 250 ng/mL Fungizone, and 1 mM sodium pyruvate) at a density of 20K cells/well. The cells were grown overnight at 37° C. in the presence of 5% CO2. The next day, medium was removed and the cells incubated with 20 μL of 2.3 µM Fluo-4, AM prepared as a 2.3 mM stock in DMSO and mixed in a 1:1 ratio with 10% (w/v) pluronic acid F-127 and diluted in assay buffer (Hank's balanced salt solution, 20 mM HEPES, and 2.5 mM probenecid) for 45 minutes at 37° C. Dye was removed, 20 μL of assay buffer was added, and the plate was incubated for 5 minutes at room temperature.
Ca^2+ flux was measured using the Functional Drug Screening System (FDSS7000, Hamamatsu, Japan). After establishment of a fluorescence baseline for about 3 seconds, the compounds of the present invention were added to the cells, and the response in cells was measured. 2.3 minutes later an EC20 concentration of the mGluR5 receptor agonist glutamate was added to the cells, and the response of the cells was measured for 1.9 minutes; an EC80 concentration of agonist was added and readings taken for an additional 1.7 minutes. All test compounds were dissolved and diluted to a concentration of 10 mM in 100% DMSO. Compounds were then serially diluted 1:3 in DMSO into 10 point concentration response curves, transferred to daughter plates, and further diluted into assay buffer to a 2× stock. Calcium fluorescence measures were recorded as fold over basal fluorescence; raw data was then normalized to the maximal response to glutamate. Antagonism of the agonist response of the mGluR5 receptor in the present invention was observed as a decrease in response to nearly maximal concentrations of glutamate in the presence of compound compared to the response to glutamate in the absence of compound.
The raw data file containing all time points was used as the data source in the analysis template. This was saved by the FDSS as a tab-delimited text file. Data were normalized using a static ratio function (F/F0) for each measurement of the total 360 values per well divided by each well's initial value. Data were then reduced to peak amplitudes (Max−Initial Min) using a time range that starts approximately 3 seconds prior to the glutamate EC20/EC80 addition and continues for approximately 90-120 seconds. This is sufficient time to capture the peak amplitude of the cellular calcium response. Individual amplitudes were expressed as % EMax by multiplying each amplitude by 100 and then dividing the product by the mean of the amplitudes derived from the glutamate ECMax-treated wells. IC50 values for test compounds were generated by fitting the normalized values versus the log of the test compound concentration (in mol/L) using a 4 parameter logistic equation where none of the parameters were fixed. Each of the three values collected at each concentration of test compound were weighted evenly.
For NAMs with a CRC that plateaus above 10% Glu Max, the IC50 values are reported, the compound is designated a “partial NAM” and the % Glu Max is reported. […] Compounds without measurable activity are designated as “>30,000 nM” since the top concentration of compound tested in the assay is 30 µM. Exemplary data are provided in Tables 1 and 2 below.
Table 1 below lists specific compounds, experimentally determined molecular mass, and mGluR5 activity determined in a cell-based assay. The mGluR5 activity was determined using the metabotropic glutamate receptor activity assays in human embryonic kidney cells as described herein, wherein the human embryonic kidney cells were transfected with rat mGluR5. The mGluR5 activity data for some compounds are shown as the average of at least three experiments with the standard error in these cases. […]
For `Cc1cc(OC2CCC2)cc(C(=O)Nc2nc(C)cs2)n1`, the IC50 was 0.059 ± 0.007 µM. In the case of `Cc1cc(OC2COC2)cc(C(=O)Nc2ccc(F)cn2)n1`, the IC50 is reported as 0.212 ± 0.008 µM. Work on `Cc1cc(OCC2CCO2)cc(C(=O)Nc2ccc(F)cn2)n1` (stereo not drawn) yielded an IC50 of 2.48 µM. `Cc1cc(OCC2COC2)cc(C(=O)Nc2ccccn2)n1` gave an IC50 of 0.392 µM. For `Cc1cc(OCC2COC2)cc(C(=O)Nc2nc(C)cs2)n1`, the IC50 was 0.143 ± 0.032 µM. With `Cc1cc(OCC2CCCO2)cc(C(=O)Nc2ccc(F)cn2)n1` (stereo not drawn) the IC50 was 2.33 µM. Compound `Cc1cc(OCC2CCOC2)cc(C(=O)Nc2ccccn2)n1` (stereo not drawn) has an IC50 of 0.21 µM. In the case of `Cc1cc(OCC2CCOC2)cc(C(=O)Nc2ccc(F)cn2)n1` (stereo not drawn), the IC50 is reported as 0.701 µM. `Cc1cc(OCC2CCOC2)cc(C(=O)Nc2nc(C)cs2)n1` (stereo not drawn) gave an IC50 of 0.2 µM. With `Cc1cc(OC[C@@H]2CCOC2)cc(C(=O)Nc2ccccn2)n1` the IC50 was 0.166 µM. For `Cc1cc(OC[C@@H]2CCOC2)cc(C(=O)Nc2nc(C)cs2)n1`, the IC50 was 0.151 ± 0.038 µM. `Cc1cc(OC[C@H]2CCOC2)cc(C(=O)Nc2ccc(F)cn2)n1` showed an IC50 of 4.89 µM. With `COCCOc1cc(C)nc(C(=O)Nc2ccccn2)c1` the IC50 was 0.12 µM. `COCCOc1cc(C)nc(C(=O)Nc2nc(C)cs2)c1` gave an IC50 of 0.082 ± 0.012 µM. With `Cc1cc(OC2COC2)cc(C(=O)Nc2cccc(F)n2)n1` the IC50 was 0.201 µM.

System: marble burying in mice
Experiment: not given
Details: cited from earlier work
In the case of `Cc1cccc(C#Cc2ccccc2)n1` [MPEP, 2-methyl-6-(phenylethynyl) pyridine], the “Efficacy in marble burying model” value is listed as “effective”. For `CN1CC(=O)N=C1NC(=O)Nc1cccc(Cl)c1` [fenobam, 1-(3-chlorophenyl)-3-(1-methyl-4-oxo-4,5-dihydro-1H-imidazol-2-yl)urea], the “Efficacy in marble burying model” value is listed as “effective”.

System: N-methyl-D-aspartate (NMDA) receptor
Experiment: not given
Details: at higher concentrations; cited from earlier work
For `Cc1cccc(C#Cc2ccccc2)n1` [MPEP, 2-methyl-6-(phenylethynyl) pyridine], the “NMDA receptor activity inhibition” value is listed as “directly inhibit”.

Target: mGluR4 (Homo sapiens, UniProt Q14833)
Sequence (Q14833 33-912): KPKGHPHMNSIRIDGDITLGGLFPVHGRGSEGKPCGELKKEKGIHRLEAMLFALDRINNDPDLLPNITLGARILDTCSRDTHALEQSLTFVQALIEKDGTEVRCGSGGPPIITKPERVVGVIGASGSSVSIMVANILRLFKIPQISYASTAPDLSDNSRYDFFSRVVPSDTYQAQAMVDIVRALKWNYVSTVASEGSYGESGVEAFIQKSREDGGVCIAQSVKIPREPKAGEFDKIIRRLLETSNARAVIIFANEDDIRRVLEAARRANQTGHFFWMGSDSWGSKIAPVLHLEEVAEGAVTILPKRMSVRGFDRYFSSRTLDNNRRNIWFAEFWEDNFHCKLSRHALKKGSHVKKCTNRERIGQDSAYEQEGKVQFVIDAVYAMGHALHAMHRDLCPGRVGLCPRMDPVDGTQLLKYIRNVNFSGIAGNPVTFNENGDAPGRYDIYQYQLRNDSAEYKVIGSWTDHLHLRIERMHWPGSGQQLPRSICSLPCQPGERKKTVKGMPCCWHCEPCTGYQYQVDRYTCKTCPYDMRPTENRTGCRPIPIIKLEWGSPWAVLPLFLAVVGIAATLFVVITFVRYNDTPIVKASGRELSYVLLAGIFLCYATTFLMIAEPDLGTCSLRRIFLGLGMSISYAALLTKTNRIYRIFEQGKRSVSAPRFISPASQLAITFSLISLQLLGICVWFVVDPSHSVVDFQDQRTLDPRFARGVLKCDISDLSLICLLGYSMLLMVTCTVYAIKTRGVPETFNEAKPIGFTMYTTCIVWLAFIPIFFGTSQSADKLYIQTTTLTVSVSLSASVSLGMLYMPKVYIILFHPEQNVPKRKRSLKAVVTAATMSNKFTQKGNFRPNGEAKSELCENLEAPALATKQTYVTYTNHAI
Experiment: not given
Details: cited from earlier work
For `Cc1cccc(C#Cc2ccccc2)n1` [MPEP, 2-methyl-6-(phenylethynyl) pyridine], the “Activity at mGluR4” value is given as “positive allosteric modulator”.
